Assay [1] deals with Primary (MP46) or metastatic (OMM1, OMM2.5, OMM1.3) uveal melanoma cells. The assay can be described thus: PrestoBlue proliferation/survival assay (FIG. 7). The conditions noted are these: MP46, OMM1, OMM2.5, OMM1.3, increasing concentrations, 72 h. The class given is cell-based, human. The method, then: FIG. 7: Primary (MP46) or metastatic (OMM1, OMM2.5, OMM1.3) uveal melanoma cells were seeded at 3000 cells/well in a 96 well plate and treated with increasing concentrations of salinomycin, AM23 or AM5. After 72 h of incubation, cells were treated with PrestoBlue reagent according to manufacture instructions. The absorbance per well was measured with a microplate reader. The data were then analyzed using Prism8. Histograms bars represent the average of three replicates #standard error of the mean (s.e.m).

In assay [2] the test system is PLX-resistant metastatic cutaneous melanoma cells. The assay can be described thus: Cell count of PLX-sensitive and resistant cutaneous melanoma cells. The conditions noted are these: increasing concentrations of AM23 or AM5 in presence or absence of PLX; cells counted after 72 h; FIG. 1. On the set-up: dose or concentration left out as unconfirmed. The assay is classed as cell-based. The method, then:
PLX-sensitve and resistant cutaneous melanoma cells, seeded at 150,000 cells/well in 6-well dishes, were treated with increasing concentrations of AM23 or AM5 in presence or absence of PLX ([…]). Cells were manually counted after 72 h.
PLX-sensitve and resistant cutaneous melanoma cells were seeded at 150,000 cells/well in 6-well dishes. They were treated with increasing concentrations of AM23 or AM5 in presence or absence of PLX ([…]). Cells were manually counted after 72 h.

Assay [3] has as its system Uveal melanoma cells (OMM1.3, MM28, MP46, MP65). As to the kind of experiment: Cell survival assay (PrestoBlue), 2D-cultures. The class given is cell-based, human. The note with it: increasing concentrations, PrestoBlue after 96 h / 72 h. The method, then:
Uveal melanoma cells (OMM1.3, MM28, MP46, MP65) were seeded at 5,000 cells/well in a 96-well plate and treated with increasing concentrations of AM23, salinomycin or staurosporine as positive control as indicated on the figure. The condition “milieu RPMI” represents medium without cells. After 96 h of incubation, cells were incubated with PrestoBlue reagent according to manufacture instructions. The absorbance per well was measured with a microplate reader. The data were then analyzed using excel.
Uveal melanoma cells were seeded at 5,000 cells/well in a 96-well plate and treated with salinomycin or ironomycin as well as a positive control (staurosporin, 500 nM). After 72 h of incubation, cells were treated with PrestoBlue reagent according to manufacture instructions (Thermofisher). The absorbance per well was measured with a microplate reader. The data were then analyzed using excel software.
Uveal melanoma cells are known to hardly enter into apoptosis in response to treatments. Thus, we investigated the effects of salinomycin (Sal) and its derivate called ironomycin (AM23) that have been shown, in different cancer cells, to trigger ferroptosis, a type of cell death based on accumulation of iron into lysosomes and subsequent lysosomal membrane permeabilization. We treated a panel of uveal melanoma cells, i.e the human metastatic OMM1.3 (BAP1+) and MM28 (BAP1+) cells, and the human primary MP46 (BAP1−) and MP65 (BAP1−) cells, with Sal or its derivate AM23 to determine if these drugs can represent potential therapeutic options.

The subject of assay [4] is Uveal melanoma cells (OMM1.3, MM28, MP65 and MP46). The assay can be described thus: Spheroid (melanosphere) formation, 3D-cultures. The assay is classed as cell-based, human. The conditions noted are these: AM23 100 nM (or 1 mM); low attachment plates; pictures after 8 days. The method, then:
Uveal melanoma cells (OMM1.3, MM28, MP65 and MP46) were seeded at 5000 cells/well in 6-well low attachment plates and were left untreated (0) or were treated with DMSO (Ctl) or AM23 (100 nM or 1 mM) 24 hours later. Representative pictures taken after 8 days are shown.
Uveal melanoma cells were seeded at a density of 5,000 cells per well and grown in MEF medium (R&D systems, #AR005) supplemented with 4 ng/ml FGF2 in low adherence plates. The following day, wells were supplemented with ironomycin (100 nM or 1 mM). Photographs were taken using a phase contrast microscope (EVOS XL Core Imaging System).

Assay [5] relates to MP46 and OMM1.3 human uveal melanoma cells. As to the kind of experiment: Fe (ii) detection in lysosomes with RhoNox-M fluorescent probe. The assay is classed as cell-based. The conditions noted are these: AM23 30 nM or 100 nM, salinomycin 0.5 mM, 48 h, then RhoNox-M 1 h, compared to control cells. Here is the method: A. MP46 and B. OMM1.3 human uveal melanoma cells were seeded at 5000 cells/well on a glass coverslip and were treated with DMSO (Ctl), AM23 (30 nM or 100 nM) or salinomycin (0.5 mM) for 48 h and then with RhoNox-M for 1 h for Fe 2+ detection. Representative confocal fluorescence microscopy images.
To assess whether AM23 triggers lysosomal iron accumulation, we evaluated whether endocytic vesicles contained Fe (ii) as previously reported. To this aim, the Fe (ii)-specific turn-on fluorescent probe RhoNox-M, which can detect the presence of Fe (ii) in lysosomes, was used. […] In response to the ensuing cytoplasmic depletion of iron, cells triggered in lysosomes the degradation of ferritin, which stores cellular iron, leading to further iron loading in this organelle.

The test system of assay [6] is ferritin. The assay can be described thus: Western blot of ferritin expression. The class given is cell-based, human. The conditions noted are these: OMM1.3 and MP46 cells; AM23 100 nM or salinomycin 0.5 mM for 48 h; immunoblot. Here is the method: FIG. 5: Effect of AM23 or salinomycin on ferritin expression. OMM1.3 and MP46 human uveal melanoma cells were left untreated (UNT) or were treated with DMSO (Ctl), AM23 (100 nM) or salinomycin (0.5 mM) for 48 h. Cell lysates were analysed by immunoblot with antibodies to ferritin. Actin was used as a loading control.
Briefly, uveal melanoma cell lysates (50 μg) were separated using SDS-PAGE, transferred onto a PVDF membrane and subsequently exposed to the appropriate antibodies, anti-ferritin (#sc376594, 1/1,000) and anti-actin (sc47778, 1/1,000) from Santa Cruz Biotechnology. The proteins were visualized using the ECL system (Amersham). The western blots shown are representative of at least 3 independent experiments.
A general note: In western blotting, separated proteins are transferred to a membrane and probed.

The subject of assay [7] is primary uveal melanoma cells (MP46 and MP65) or metastatic uveal melanoma cells (OMM1.3) expressing or not BAP1. As to the kind of experiment: Colony formation assay. The class given is cell-based, human. The conditions noted are these: MP46, MP65, OMM1.3, whether BAP1 is expressed or not; 7 days. The text has this: FIG. 6: Colony formation assay of primary uveal melanoma cells (MP46 and MP65) or metastatic uveal melanoma cells (OMM1.3) expressing or not BAP1 after seeding them for 7 days upon treatment with the drugs indicated on the figure. Representative wells are shown.

Entries after “also recorded” stand apart in the source; their conditions may differ.

For `C#CCN[C@@H]1C=C[C@]2(O[C@H]([C@@H](CC)C(=O)[C@@H](C)[C@@H](O)[C@H](C)C3O[C@@H](C(CC)C(=O)O)CC[C@@H]3C)[C@@H](C)C[C@H]2C)O[C@@]12CC[C@@](C)([C@H]1CC[C@](O)(CC)[C@H](C)O1)O2` (stereo partly shown) [AM5], the “uveal melanoma cell proliferation/survival (FIG. 7)” value in assay [1] is on record as “decreases uveal melanoma cell proliferation/survival, yet with a little bit lower efficacy than AM23”.
On to `C#CCN[C@@H]1C=C[C@]2(O[C@H]([C@@H](CC)C(=O)[C@@H](C)[C@@H](O)[C@H](C)[C@@H]3O[C@@H]([C@@H](CC)C(=O)O)CC[C@@H]3C)[C@@H](C)C[C@H]2C)O[C@@]12CC[C@@](C)([C@H]1CC[C@](O)(CC)[C@H](C)O1)O2` [AM23, (2R)-2-[(2R,5S,6R)-6-{(2S,3S,4S,6R)-6-[(2S,5S,7R,9S,10S,12R,15R)-2-[(2R,5R,6S)-5-Ethyl-5-hydroxy-6-methyltetrahydro-2H-pyran-2-yl]-2, 10,12-trimethyl-15-(2-propyn-1-ylamino)-1,6,8-trioxadispiro[4.1.5.3]pentadec-13-en-9-yl]-3-hydroxy-4-methyl-5-oxo-2-octanyl}-5-methyltetrahydro-2H-pyran-2-yl]butanoic acid], for which, in assay [2], the “resensitization of PLX-resistant cells to PLX effects (cell count)” value was “resensitizes PLX-resistant metastatic cutaneous melanoma cells to PLX effects”. Moreover, the “proliferation/survival of uveal melanoma cells in 2D-cultures” value in assay [3] is given as “induces uveal melanoma cell death; also recorded: reduced proliferation/survival”. The “melanosphere formation / cell survival in 3D-cultures” value in assay [4] is given as “prevents melanosphere formation; also recorded: almost complete disappearance of melanospheres”. Also, the “Fe (ii) / iron accumulation in lysosomes (RhoNox-M fluorescence)” value in assay [5] is “induces Fe (ii) in lysosomes; also recorded: exhibited fluorescent RhoNox-M-positive vesicles”. For the same compound, the ferritin expression entry in assay [6] is “strongly reduced”. In addition, the “ability of uveal melanoma cells to form colonies” value in assay [7] is given as “strong reduction”.
`CC[C@@H](C(=O)O)C1CC[C@H](C)[C@H]([C@@H](C)[C@H](O)[C@H](C)C(=O)[C@H](CC)[C@H]2OC3(C=C[C@@H](O)C4(CC[C@@](C)([C@H]5CC[C@](O)(CC)[C@H](C)O5)O4)O3)[C@H](C)C[C@@H]2C)O1` (stereo in doubt) [Salinomycin, (2R)-2-[(5S,6R)-6-[(1S,2S,3S,5R)-5-[(2S,5R,7S,9S,10S, 12R, 15R)-2-[(2R,5R,6S)-5-ethyl-5-hydroxy-6-methyl-2-tetrahydropyranyl]-15-hydroxy-2,10,12-trimethyl-1,6,8-trioxadispiro[4.1.57.35]pentadec-13-en-9-yl]-2-hydroxy-1,3-dimethyl-4-oxoheptyl]-5-methyl-2-tetrahydropyranyl]butanoic acid, reference compound]: the “proliferation/survival of uveal melanoma cells in 2D-cultures” value is “induces uveal melanoma cell death” in assay [3] and “reduced proliferation/survival” in assay [3] (listed as Sal). In addition, the “Fe (ii) / iron accumulation in lysosomes (RhoNox-M fluorescence)” value is given as “induces Fe (ii) in lysosomes” in assay [5] and “exhibited fluorescent RhoNox-M-positive vesicles” in assay [5] (listed as Sal). Besides, in assay [6], the ferritin expression result is listed as “strongly reduced”. For the same compound, the “ability of uveal melanoma cells to form colonies” value in assay [7] was “strong reduction”.

The record behind these values is patent publication US20250041261A1, “METHODS AND COMPOSITIONS FOR TREATING MELANOMA” (INSTITUT NATIONAL DE LA SANTÉ ET DE LA RECHERCHE MÉDICALE, priority 2021, published 2025).
